Consider 17 compounds from patent US11655235B2, “Pyrrolidine and piperidine compounds” (YUHAN CORPORATION, priority 2019, dated 2023).

Holding throughout (format): biochemical
For test [1], the target named is T1, recombinant human DPP8 (Homo sapiens, UniProt Q6V1X1).
T1 construct: purchased PBS Bioscience
The test is described as follows: DPP8 inhibition, fluorogenic substrate Z-Ala-Pro-AMC. Particulars: recombinant human DPP8. The method in brief: (§1)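 Enzyme per reaction: 50 ng DPP9, 20 ng DPP8, 10 ng each DPP7 and PREP. Compounds were serially diluted (8 points, up to 0.5% DMSO) and incubated at 25 °C.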

The target in test [2] is T2, Recombinant human FAP (Homo sapiens, UniProt Q12884).
T2 construct: purchased R&D systems
T2 sequence (Q12884 1-760): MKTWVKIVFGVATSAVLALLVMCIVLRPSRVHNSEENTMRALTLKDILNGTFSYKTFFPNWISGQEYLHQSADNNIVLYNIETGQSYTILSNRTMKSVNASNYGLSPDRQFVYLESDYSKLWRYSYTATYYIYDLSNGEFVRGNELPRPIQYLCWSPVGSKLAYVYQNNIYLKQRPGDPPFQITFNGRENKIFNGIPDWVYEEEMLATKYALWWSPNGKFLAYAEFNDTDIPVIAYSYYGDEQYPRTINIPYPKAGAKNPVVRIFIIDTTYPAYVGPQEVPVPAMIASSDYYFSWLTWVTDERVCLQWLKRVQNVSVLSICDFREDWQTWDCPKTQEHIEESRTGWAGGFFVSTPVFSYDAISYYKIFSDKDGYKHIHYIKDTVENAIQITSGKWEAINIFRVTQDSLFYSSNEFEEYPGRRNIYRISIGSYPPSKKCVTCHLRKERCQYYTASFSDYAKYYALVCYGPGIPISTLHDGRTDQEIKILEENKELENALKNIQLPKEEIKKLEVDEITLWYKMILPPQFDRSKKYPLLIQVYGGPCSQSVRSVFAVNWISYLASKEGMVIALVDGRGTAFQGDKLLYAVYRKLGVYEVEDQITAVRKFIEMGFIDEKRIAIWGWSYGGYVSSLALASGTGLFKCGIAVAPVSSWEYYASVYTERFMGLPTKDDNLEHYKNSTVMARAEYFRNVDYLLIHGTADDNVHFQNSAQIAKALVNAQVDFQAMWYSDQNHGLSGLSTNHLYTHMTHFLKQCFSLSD
In words: FAP inhibition, fluorogenic substrate Z-Gly-Pro-AMC. Particulars: recombinant human FAP, substrate Z-Gly-Pro-AMC. A digest of the protocol:
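Recombinant human FAP, 10 ng per reaction, in 50 mM Tris pH 7.5 with 1 M NaCl and 1 mg/ml BSA at 25° C; substrate Z-Gly-Pro-AMC, ≤0.1% DMSO. AMC fluorescence read at ex 380/em 460 nm; % signal-rate decrease vs no-inhibitor control, 8-point curves fitted to a four-parameter logistic for IC50.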

For test [3], the target named is T3, recombinant human DPP7 (Homo sapiens, UniProt Q9UHL4).
T3 construct: purchased R&D Systems
In words: DPP7 inhibition, fluorogenic substrate Lys-Pro-AMC. Particulars: recombinant human DPP7. A digest of the protocol: as §1

T1 sequence (Q6V1X1 whole entry): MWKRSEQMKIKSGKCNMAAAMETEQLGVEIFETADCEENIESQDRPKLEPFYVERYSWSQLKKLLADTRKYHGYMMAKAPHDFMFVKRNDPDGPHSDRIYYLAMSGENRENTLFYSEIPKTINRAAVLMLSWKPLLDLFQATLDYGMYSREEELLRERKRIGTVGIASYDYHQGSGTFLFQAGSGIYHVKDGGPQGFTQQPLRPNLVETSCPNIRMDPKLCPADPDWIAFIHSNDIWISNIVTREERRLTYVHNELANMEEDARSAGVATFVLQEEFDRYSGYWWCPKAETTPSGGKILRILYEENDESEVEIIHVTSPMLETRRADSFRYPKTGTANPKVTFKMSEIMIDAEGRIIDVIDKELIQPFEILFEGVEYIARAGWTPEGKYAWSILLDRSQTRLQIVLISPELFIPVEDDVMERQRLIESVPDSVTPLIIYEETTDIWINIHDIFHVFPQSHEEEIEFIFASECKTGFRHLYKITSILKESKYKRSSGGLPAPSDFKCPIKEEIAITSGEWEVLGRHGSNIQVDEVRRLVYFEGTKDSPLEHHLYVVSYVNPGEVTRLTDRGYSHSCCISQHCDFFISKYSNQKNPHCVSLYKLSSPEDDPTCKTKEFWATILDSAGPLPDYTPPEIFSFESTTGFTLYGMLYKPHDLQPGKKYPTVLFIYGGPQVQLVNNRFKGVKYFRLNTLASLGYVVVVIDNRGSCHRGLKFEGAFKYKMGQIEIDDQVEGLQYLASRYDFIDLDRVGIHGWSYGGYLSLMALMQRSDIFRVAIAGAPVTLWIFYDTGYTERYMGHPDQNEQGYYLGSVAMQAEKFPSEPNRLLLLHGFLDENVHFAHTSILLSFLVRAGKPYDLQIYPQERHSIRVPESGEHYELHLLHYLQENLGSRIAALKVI

Broadly, the IC50 is the midpoint of a concentration-inhibition curve. In the case of `N#C[C@@H]1C[C@H](F)CN1C(=O)CN1CC[C@H](Nc2ccc(OC(F)(F)F)c3ncccc23)C1` [Example 266, (2S,4S)-4-fluoro-1-[2-[(3S)-3-[[8-(trifluoromethoxy)-5-quinolyl]amino]pyrrolidin-1-yl]acetyl]pyrrolidine-2-carbonitrile], the IC50 is more than 10 µM in test [1], 0.0008 µM in test [2] and 1.07 µM in test [3].
As for `N#C[C@@H]1C[C@H](F)CN1C(=O)CN1CCC(Nc2cccc3cnc(Cl)cc23)CC1` [Example 352, (2S,4S)-1-[2-[4-[(3-chloro-5-isoquinolyl)amino]-1-piperidyl]acetyl]-4-fluoro-pyrrolidine-2-carbonitrile], the IC50 is more than 10 µM in test [1], 0.0027 µM in test [2] and 2.93 µM in test [3].
Taken in the same sequence, the figures for `COc1cc2c(NC3CCN(CC(=O)N4C[C@@H](F)C[C@H]4C#N)CC3)cccc2cn1` [Example 355, (2S,4S)-4-fluoro-1-[2-[4-[(3-methoxy-5-isoquinolyl)amino]-1-piperidyl]acetyl]pyrrolidine-2-carbonitrile] were more than 100 µM, 0.0027 µM and 0.846 µM.
Taken in the same sequence, the figures for `N#C[C@@H]1CCCN1C(=O)CN1CC[C@H](Nc2ccc(F)c3ncccc23)C1` [Example 244, (2S)-1-[2-[(3S)-3-[(8-fluoro-5-quinolyl)amino]pyrrolidin-1-yl]acetyl]pyrrolidine-2-carbonitrile] were 32.7 µM, 0.0022 µM and 9.14 µM.
As to `COc1cnc2cccc(N[C@H]3CCN(CC(=O)N4CCC[C@H]4C#N)C3)c2c1` [Example 233, (2S)-1-[2-[(3S)-3-[(3-methoxy-5-quinolyl)amino]pyrrolidin-1-yl]acetyl]pyrrolidine-2-carbonitrile], the figures for the half-maximal inhibitory concentration (IC50) in test [1], in test [2] and in test [3] were 28.1 µM, 0.0007 µM and 1.07 µM, respectively.
Consider `N#Cc1ccc(N[C@H]2CCN(CC(=O)N3CCC[C@H]3C#N)C2)c2cccnc12` [Example 247, 5-[[(3S)-1-[2-oxo-2-[(2S)-2-cyanopyrrolidin-1-yl]ethyl]pyrrolidin-3-yl]amino]quinoline-8-carbonitrile], for which the IC50 was more than 100 µM in test [1], 0.0013 µM in test [2] and more than 50 µM in test [3].
Take `N#C[C@@H]1CCCN1C(=O)CN1CC[C@H](Nc2ccc(C(F)(F)F)c3ncccc23)C1` [Example 245, (2S)-1-[2-[(3S)-3-[[8-(trifluoromethyl)-5-quinolyl]amino]pyrrolidin-1-yl]acetyl]pyrrolidine-2-carbonitrile]: the IC50 in test [1] is more than 100 µM; in test [2], 0.001 µM; in test [3], 3.75 µM.
The like results for `COc1cnc2cccc(NC3CCN(CC(=O)N4C[C@@H](F)C[C@H]4C#N)CC3)c2c1` [Example 348, (2S,4S)-4-fluoro-1-[2-[4-[(3-methoxy-5-quinolyl)amino]-1-piperidyl]acetyl]pyrrolidine-2-carbonitrile] were, in that order, 2.44 µM, 0.0021 µM and 0.612 µM.
For the compound `N#C[C@@H]1C[C@H](F)CN1C(=O)CN1CCC(Nc2ccc(C(F)(F)F)c3ncccc23)CC1` [Example 334, (2S,4S)-4-fluoro-1-[2-[4-[[8-(trifluoromethyl)-5-quinolyl]amino]-1-piperidyl]acetyl]pyrrolidine-2-carbonitrile], the IC50 was determined as 0.004 µM in test [2] and 0.404 µM in test [3].
On to `N#C[C@@H]1C[C@H](F)CN1C(=O)CN1CCC(Nc2ccc(OC(F)(F)F)c3ncccc23)CC1` [Example 347, (2S,4S)-4-fluoro-1-[2-[4-[[8-(trifluoromethoxy)-5-quinolyl]amino]-1-piperidyl]acetyl]pyrrolidine-2-carbonitrile], for which the results for the IC50 in test [1], in test [2] and in test [3] were 2.62 µM, 0.0022 µM and 1.01 µM, respectively.
On to `N#C[C@@H]1C[C@H](F)CN1C(=O)CN1CC[C@H](Nc2cccc3ncc(F)cc23)C1` [Example 255, (2S,4S)-4-fluoro-1-[2-[(3S)-3-[(3-fluoro-5-quinolyl)amino]pyrrolidin-1-yl]acetyl]pyrrolidine-2-carbonitrile], for which the half-inhibitory concentration (IC50) stood at 5.1 µM in test [1], 0.001 µM in test [2] and 1.85 µM in test [3].
Consider `N#C[C@@H]1C[C@H](F)CN1C(=O)CN1CC[C@H](Nc2ccc(OCc3ccccc3)c3ncccc23)C1` [Example 268, (2S,4S)-4-fluoro-1-[2-[(3S)-3-[(8-benzyloxy-5-quinolyl)amino]pyrrolidin-1-yl]acetyl]pyrrolidine-2-carbonitrile], for which the IC50 in test [1] came out at 1.11 µM; in test [2], 0.001 µM; in test [3], 0.511 µM.
Take `Cc1ccc2nccc(OC3CCN(CC(=O)N4C[C@@H](F)C[C@H]4C#N)CC3)c2c1` [Example 410, (2S,4S)-4-fluoro-1-[2-[4-[(6-methyl-4-quinolyl)oxy]-1-piperidyl]acetyl]pyrrolidine-2-carbonitrile]: the IC50 in test [1] was determined as 10.7 µM; in test [2], 0.0012 µM; in test [3], 4.73 µM.
Taken in the same sequence, the figures for `N#C[C@@H]1C[C@H](F)CN1C(=O)CN1CC[C@H](Nc2cccc3ncccc23)C1` [Example 228, (2S,4S)-4-fluoro-1-[2-[(3S)-3-(5-quinolylamino)pyrrolidin-1-yl]acetyl]pyrrolidine-2-carbonitrile] were 10.8 µM, 0.00121 µM and 0.387 µM.
As for `N#Cc1cnc2cccc(N[C@H]3CCN(CC(=O)N4CCC[C@H]4C#N)C3)c2c1` [Example 232, 5-[[(3S)-1-[2-oxo-2-[(2S)-2-cyanopyrrolidin-1-yl]ethyl]pyrrolidin-3-yl]amino]quinoline-3-carbonitrile], the IC50 is more than 100 µM in test [1], 0.0013 µM in test [2] and 7.15 µM in test [3].
Taken in the same sequence, the figures for `N#C[C@@H]1C[C@H](F)CN1C(=O)CN1CCC(Nc2cccc3ncc(F)cc23)CC1` [Example 349, (2S,4S)-4-fluoro-1-[2-[4-[(3-fluoro-5-quinolyl)amino]-1-piperidyl]acetyl]pyrrolidine-2-carbonitrile] were 2.9 µM, 0.0016 µM and 1.99 µM.
With `COc1ccc(N[C@H]2CCN(CC(=O)N3C[C@@H](F)C[C@H]3C#N)C2)c2cccnc12` [Example 263, (2S,4S)-4-fluoro-1-[2-[(3S)-3-[(8-methoxy-5-quinolyl)amino]pyrrolidin-1-yl]acetyl]pyrrolidine-2-carbonitrile], the half-inhibitory concentration (IC50) in test [1] came out at 3.57 µM; in test [2] it was 0.0011 µM; in test [3], 0.554 µM.
